Results: US11572369B2, “Bicyclic pyridine compositions and methods of using the same for cancer therapy” (UNIVERSITY OF SOUTH CAROLINA, priority 2019, dated 2023)

Key:
Experiment in all cases: KINOMEscan
Assay type in all cases: binding
Conditions in all cases: 2000 nM
ACVR1B = target: T1, ACVR1B (Homo sapiens, UniProt P36896)
T1 construct: purchased DiscoveRx (KINOMEscan scanMAX panel, service)

ADCK3 = target: T2, ADCK3 (Homo sapiens, UniProt Q8NI60)
T2 construct: purchased DiscoveRx (KINOMEscan scanMAX panel, service)

ARK5 = target: T3, ARK5 (Homo sapiens, UniProt O60285)
T3 construct: DNA label (qPCR read-out); purchased KINOMEscan scanMAX panel (DiscoveRx)

ASK1 = target: T4, ASK1 (Homo sapiens, UniProt Q99683)
T4 construct: DNA label (qPCR read-out); purchased KINOMEscan scanMAX panel (DiscoveRx)

CHEK2 = target: T5, CHEK2 (Homo sapiens, UniProt O96017)
T5 construct: DNA label (for qPCR read-out); purchased DiscoveRx (KINOMEscan scanMAX service)

CSK = target: T6, CSK (Homo sapiens, UniProt P41240)
T6 construct: DNA label; purchased DiscoveRx (KINOMEscan scanMAX panel)
T6 sequence (P41240 whole entry): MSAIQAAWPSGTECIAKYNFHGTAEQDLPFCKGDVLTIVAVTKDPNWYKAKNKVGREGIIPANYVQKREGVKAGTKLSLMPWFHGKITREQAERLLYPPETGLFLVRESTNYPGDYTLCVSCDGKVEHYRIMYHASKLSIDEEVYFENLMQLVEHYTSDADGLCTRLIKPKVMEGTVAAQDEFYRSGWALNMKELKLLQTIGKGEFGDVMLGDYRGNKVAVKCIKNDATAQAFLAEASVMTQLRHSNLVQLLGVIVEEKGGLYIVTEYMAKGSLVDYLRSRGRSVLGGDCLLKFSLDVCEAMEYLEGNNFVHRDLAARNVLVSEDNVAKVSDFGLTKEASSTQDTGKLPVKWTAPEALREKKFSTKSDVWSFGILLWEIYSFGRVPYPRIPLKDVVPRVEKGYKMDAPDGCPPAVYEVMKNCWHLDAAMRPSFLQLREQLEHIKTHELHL

CSNK1G1 = target: T7, CSNK1G1 (Homo sapiens, UniProt Q9HCP0)
T7 construct: DNA label; purchased DiscoveRx (KINOMEscan scanMAX panel)

CTK = target: T8, CTK (Homo sapiens, UniProt P42679)
T8 construct: DNA label; purchased DiscoveRx (KINOMEscan scanMAX panel)

EGFR(T790M) = target: T9, EGFR(T790M) (Homo sapiens, UniProt P00533, T790M)
T9 construct: purchased DiscoveRx (KINOMEscan scanMAX panel)

EPHB3 = target: T10, EPHB3 (Homo sapiens, UniProt P54753)
T10 construct: purchased DiscoveRx (KINOMEscan scanMAX panel)

EPHB4 = target: T11, EPHB4 (Homo sapiens, UniProt P54760)
T11 construct: purchased DiscoveRx (KINOMEscan scanMAX panel)

FGFR2 = target: T12, FGFR2 (Homo sapiens, UniProt P21802)
T12 construct: purchased DiscoveRx (KINOMEscan scanMAX panel)

FLT3-autoinhibited = target: T13, FLT3-autoinhibited (Homo sapiens, UniProt P36888)
T13 construct: purchased KINOMEscan (DiscoveRx)

IKK-beta = target: T14, IKK-beta (Homo sapiens, UniProt O14920)
T14 construct: DNA label (qPCR read-out); purchased KINOMEscan (DiscoveRx) ScanMAX panel

IRAK3 = target: T15, IRAK3 (Homo sapiens, UniProt Q9Y616)
T15 construct: DNA label (qPCR read-out); purchased KINOMEscan (DiscoveRx) ScanMAX panel

KIT (D816H) = target: T16, KIT (D816H) (Homo sapiens, UniProt P10721, D816H)
T16 construct: DNA label (for qPCR read-out); purchased DiscoveRx (KINOMEscan scanMAX panel)

KIT(V559D, V654A) = target: T17, KIT(V559D, V654A) (Homo sapiens, UniProt P10721, V559D/V654A)
T17 construct: purchased KINOMEscan (DiscoveRx) panel service

LATS1 = target: T18, LATS1 (Homo sapiens, UniProt O95835)
T18 construct: purchased KINOMEscan (DiscoveRx) panel service

LYN = LYN (Homo sapiens, UniProt P07948)
LYN, sequence (P07948 whole entry): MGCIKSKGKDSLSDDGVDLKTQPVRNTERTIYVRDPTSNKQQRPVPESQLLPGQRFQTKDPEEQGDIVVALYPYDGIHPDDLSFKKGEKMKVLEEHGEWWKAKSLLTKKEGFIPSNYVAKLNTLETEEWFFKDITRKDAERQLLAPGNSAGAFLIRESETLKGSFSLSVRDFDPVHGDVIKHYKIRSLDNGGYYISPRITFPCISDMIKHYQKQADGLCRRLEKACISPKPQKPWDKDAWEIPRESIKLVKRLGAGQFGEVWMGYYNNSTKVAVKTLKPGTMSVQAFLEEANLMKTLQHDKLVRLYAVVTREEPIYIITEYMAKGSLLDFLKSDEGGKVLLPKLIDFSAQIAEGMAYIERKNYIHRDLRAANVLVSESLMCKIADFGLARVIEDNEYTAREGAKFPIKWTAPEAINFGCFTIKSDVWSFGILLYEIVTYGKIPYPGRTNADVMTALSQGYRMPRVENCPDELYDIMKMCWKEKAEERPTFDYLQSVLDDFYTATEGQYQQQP

[1] = target: T19, (Homo sapiens, UniProt P20794)
T19 construct: DNA label (qPCR read-out); purchased DiscoverX (KINOMEscan service)

MARK3 = MARK3 (Homo sapiens, UniProt P27448)
MKNK1 = target: T20, MKNK1 (Homo sapiens, UniProt Q9BUB5)
T20 construct: DNA label (qPCR read-out); purchased KINOMEscan scanMAX panel (DiscoveRx)
T20 sequence (Q9BUB5 whole entry): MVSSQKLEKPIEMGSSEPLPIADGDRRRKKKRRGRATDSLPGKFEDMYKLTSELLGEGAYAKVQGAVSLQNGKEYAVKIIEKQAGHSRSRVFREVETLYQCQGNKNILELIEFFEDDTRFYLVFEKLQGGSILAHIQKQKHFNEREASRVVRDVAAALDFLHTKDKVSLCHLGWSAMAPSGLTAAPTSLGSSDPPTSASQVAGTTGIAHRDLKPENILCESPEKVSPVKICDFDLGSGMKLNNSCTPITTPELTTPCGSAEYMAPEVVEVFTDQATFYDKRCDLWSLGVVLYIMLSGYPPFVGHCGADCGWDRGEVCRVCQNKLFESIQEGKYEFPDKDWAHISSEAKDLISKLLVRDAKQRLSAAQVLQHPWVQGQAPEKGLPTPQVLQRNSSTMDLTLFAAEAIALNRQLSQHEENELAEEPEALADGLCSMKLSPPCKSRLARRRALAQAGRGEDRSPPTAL

MLCK = target: T21, MLCK (Homo sapiens, UniProt Q32MK0)
T21 construct: DNA label (qPCR read-out); purchased KINOMEscan scanMAX panel (DiscoveRx)

MST2 = target: T22, MST2 (Homo sapiens, UniProt Q13188)
T22 construct: DNA label (for qPCR read-out); purchased KINOMEscan scanMAX panel (DiscoveRx)
T22 sequence (Q13188 whole entry): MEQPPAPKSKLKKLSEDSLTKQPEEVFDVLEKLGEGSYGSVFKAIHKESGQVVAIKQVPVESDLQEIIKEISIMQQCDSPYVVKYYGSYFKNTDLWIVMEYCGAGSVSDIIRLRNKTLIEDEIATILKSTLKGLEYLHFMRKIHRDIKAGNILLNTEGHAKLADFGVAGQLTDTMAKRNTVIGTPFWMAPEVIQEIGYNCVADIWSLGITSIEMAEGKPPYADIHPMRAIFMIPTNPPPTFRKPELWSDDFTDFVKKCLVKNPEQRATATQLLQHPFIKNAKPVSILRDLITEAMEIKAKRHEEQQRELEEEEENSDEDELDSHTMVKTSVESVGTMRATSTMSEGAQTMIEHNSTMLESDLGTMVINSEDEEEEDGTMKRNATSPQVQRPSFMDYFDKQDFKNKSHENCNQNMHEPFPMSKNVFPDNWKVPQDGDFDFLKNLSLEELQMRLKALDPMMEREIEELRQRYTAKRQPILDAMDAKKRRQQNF

MST4 = target: T23, MST4 (Homo sapiens, UniProt Q9P289)
T23 construct: DNA label (for qPCR read-out); purchased KINOMEscan scanMAX panel (DiscoveRx)
T23 sequence (Q9P289 whole entry): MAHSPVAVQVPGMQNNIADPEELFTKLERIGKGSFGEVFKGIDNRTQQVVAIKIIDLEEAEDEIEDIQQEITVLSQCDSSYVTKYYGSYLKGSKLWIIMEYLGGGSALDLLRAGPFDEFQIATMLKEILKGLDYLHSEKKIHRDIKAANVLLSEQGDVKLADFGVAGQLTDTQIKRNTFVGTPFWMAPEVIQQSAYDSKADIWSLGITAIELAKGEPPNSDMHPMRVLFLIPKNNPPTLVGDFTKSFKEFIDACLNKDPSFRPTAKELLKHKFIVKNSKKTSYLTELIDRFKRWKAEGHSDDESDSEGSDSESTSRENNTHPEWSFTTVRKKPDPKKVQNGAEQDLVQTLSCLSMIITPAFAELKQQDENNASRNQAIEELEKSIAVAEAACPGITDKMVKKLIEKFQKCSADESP

NDR1 = target: T24, NDR1 (Homo sapiens, UniProt Q15208)
T24 construct: DNA label (for qPCR read-out); purchased KINOMEscan scanMAX panel (DiscoveRx)

PIK3CA(I800L) = target: T25, PIK3CA(I800L) (Homo sapiens, UniProt P42336, I800L)
T25 construct: DNA label; purchased DiscoveRx (KINOMEscan scanMAX panel)

PRKCH = target: T26, PRKCH (Homo sapiens, UniProt P24723)
T26 construct: purchased DiscoveRx (KINOMEscan scanMAX panel)

RET(V804M) = target: T27, RET(V804M) (Homo sapiens, UniProt P07949, V804M)
T27 construct: purchased DiscoveRx (KINOMEscan scanMAX panel)

ROCK2 = target: T28, ROCK2 (Homo sapiens, UniProt O75116)
T28 construct: DNA label (qPCR read-out); purchased DiscoveRx (KINOMEscan ScanMAX panel)
T28 sequence (O75116 whole entry): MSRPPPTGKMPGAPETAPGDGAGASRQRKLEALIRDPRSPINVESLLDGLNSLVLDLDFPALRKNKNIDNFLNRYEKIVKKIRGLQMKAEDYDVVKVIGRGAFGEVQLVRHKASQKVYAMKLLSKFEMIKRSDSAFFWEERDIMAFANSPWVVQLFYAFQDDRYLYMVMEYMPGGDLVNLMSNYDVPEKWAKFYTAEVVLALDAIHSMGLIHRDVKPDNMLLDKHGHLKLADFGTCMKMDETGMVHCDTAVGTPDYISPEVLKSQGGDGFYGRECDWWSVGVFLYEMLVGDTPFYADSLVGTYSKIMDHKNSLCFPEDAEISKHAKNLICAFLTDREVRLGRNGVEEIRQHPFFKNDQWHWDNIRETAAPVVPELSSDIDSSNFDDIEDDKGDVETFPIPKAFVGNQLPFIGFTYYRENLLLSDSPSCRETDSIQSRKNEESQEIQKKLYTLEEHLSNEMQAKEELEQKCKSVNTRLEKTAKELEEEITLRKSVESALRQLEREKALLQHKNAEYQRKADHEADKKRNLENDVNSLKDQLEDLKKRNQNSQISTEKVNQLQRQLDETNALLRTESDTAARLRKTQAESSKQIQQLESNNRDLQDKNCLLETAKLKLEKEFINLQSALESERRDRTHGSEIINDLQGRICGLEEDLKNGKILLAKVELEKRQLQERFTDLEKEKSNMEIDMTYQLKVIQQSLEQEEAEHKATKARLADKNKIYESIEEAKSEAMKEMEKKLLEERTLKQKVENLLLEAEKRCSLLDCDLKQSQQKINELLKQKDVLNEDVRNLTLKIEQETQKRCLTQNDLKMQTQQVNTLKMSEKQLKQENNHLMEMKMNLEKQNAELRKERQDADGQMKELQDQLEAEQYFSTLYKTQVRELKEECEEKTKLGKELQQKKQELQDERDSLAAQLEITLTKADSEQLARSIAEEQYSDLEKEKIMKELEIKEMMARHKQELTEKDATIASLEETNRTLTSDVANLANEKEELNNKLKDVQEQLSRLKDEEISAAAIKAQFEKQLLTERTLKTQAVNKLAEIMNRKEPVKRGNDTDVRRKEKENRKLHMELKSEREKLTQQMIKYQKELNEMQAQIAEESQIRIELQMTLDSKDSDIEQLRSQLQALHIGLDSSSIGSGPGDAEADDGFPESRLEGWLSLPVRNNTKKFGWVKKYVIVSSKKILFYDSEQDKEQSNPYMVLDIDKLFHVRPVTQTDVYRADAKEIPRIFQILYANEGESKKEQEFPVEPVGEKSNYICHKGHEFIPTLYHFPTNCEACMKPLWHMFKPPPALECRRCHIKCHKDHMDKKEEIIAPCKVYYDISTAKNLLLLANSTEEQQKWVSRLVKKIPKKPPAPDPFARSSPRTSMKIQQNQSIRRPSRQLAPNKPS

[2] = target: T29, RSK2(Kin.Dom.1-N-terminal) (Homo sapiens, UniProt P51812)
T29 construct: RSK2(Kin.Dom.1); purchased DiscoveRx (KINOMEscan scanMAX panel)
T29 sequence (P51812 68-327 limits assumed): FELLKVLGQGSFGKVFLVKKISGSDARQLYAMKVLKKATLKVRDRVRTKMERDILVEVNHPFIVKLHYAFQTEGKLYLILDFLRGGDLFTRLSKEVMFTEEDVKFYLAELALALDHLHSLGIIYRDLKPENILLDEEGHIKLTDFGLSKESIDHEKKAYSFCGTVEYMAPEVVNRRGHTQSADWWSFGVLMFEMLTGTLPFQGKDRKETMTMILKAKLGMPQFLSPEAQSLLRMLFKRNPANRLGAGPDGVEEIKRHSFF

SNARK = target: T30, SNARK (Homo sapiens, UniProt Q9H093)
T30 construct: purchased KINOMEscan (DiscoveRx)

TAOK1 = target: T31, TAOK1 (Homo sapiens, UniProt Q7L7X3)
T31 construct: DNA label (for qPCR read-out); purchased DiscoveRx (KINOMEscan scanMAX panel, contract assay)
T31 sequence (Q7L7X3 whole entry): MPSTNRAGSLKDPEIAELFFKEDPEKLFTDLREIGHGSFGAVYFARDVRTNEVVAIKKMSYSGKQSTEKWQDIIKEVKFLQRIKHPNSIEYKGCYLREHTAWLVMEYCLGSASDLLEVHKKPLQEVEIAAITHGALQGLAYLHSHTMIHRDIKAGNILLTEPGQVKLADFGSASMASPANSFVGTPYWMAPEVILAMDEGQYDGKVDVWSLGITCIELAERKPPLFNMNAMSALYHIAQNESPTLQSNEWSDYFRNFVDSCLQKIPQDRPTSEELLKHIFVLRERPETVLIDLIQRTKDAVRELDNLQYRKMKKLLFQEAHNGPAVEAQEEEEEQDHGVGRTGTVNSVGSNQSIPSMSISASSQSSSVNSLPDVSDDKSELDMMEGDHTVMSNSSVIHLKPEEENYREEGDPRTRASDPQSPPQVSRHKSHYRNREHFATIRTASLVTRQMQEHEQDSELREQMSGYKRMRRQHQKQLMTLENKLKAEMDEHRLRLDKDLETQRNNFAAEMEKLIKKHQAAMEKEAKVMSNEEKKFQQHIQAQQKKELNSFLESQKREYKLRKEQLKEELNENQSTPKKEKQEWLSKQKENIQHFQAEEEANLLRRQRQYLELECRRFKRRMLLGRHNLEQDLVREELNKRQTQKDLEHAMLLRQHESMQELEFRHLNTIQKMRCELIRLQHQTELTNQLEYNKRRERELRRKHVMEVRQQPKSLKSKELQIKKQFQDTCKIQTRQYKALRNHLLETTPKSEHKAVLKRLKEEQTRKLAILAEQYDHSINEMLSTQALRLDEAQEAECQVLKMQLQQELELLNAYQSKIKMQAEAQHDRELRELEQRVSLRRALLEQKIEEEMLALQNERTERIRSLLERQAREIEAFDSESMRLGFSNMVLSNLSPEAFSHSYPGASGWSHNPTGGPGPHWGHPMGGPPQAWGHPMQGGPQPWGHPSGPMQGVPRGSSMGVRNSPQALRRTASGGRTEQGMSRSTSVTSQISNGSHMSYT

ULK3 = target: T32, ULK3 (Homo sapiens, UniProt Q6PHR2)
T32 construct: DNA label (for qPCR read-out); purchased DiscoveRx (KINOMEscan scanMAX panel)

VPS34 = target: T33, VPS34 (Homo sapiens, UniProt Q8NEB9)
T33 construct: DNA label (for qPCR read-out); purchased DiscoveRx (KINOMEscan scanMAX panel)

WEE2 = target: T34, WEE2 (Homo sapiens, UniProt P0C1S8)
T34 construct: purchased KINOMEscan (DiscoveRx) panel service

Row | SMILES | % Ctrl (ACVR1B) [% Ctrl] | % Ctrl (ADCK3) [% Ctrl] | % Ctrl (ARK5) [% Ctrl] | % Ctrl (ASK1) [% Ctrl] | % Ctrl (CHEK2) [% Ctrl] | % Ctrl (CSK) [% Ctrl] | % Ctrl (CSNK1G1) [% Ctrl] | % Ctrl (CTK) [% Ctrl] | % Ctrl (EGFR(T790M)) [% Ctrl] | % Ctrl (EPHB3) [% Ctrl] | % Ctrl (EPHB4) [% Ctrl] | % Ctrl (FGFR2) [% Ctrl] | % Ctrl (FLT3-autoinhibited) [% Ctrl] | % Ctrl (IKK-beta) [% Ctrl] | % Ctrl (IRAK3) [% Ctrl] | % Ctrl (KIT (D816H)) [% Ctrl] | % Ctrl (KIT(V559D, V654A)) [% Ctrl] | % Ctrl (LATS1) [% Ctrl] | % Ctrl (LYN) [% Ctrl] | % Ctrl [1] [% Ctrl] | other results
1 | CN(C)C(=O)c1ccc(N2CCCN(c3ccnc4sc(C(N)=O)c(N)c34)CC2)cc1 [15u, 3-amino-4-(4-(4-(dimethylcarbamoyl)phenyl)-1,4-diazepan-1-yl)thieno[2,3-b]pyridine-2-carboxamide] | 100 | 90 | 57 | 100 | 92 | 86 | 90 | 92 | 98 | 96 | 100 | 99 | 72 | 89 | 93 | 91 | 100 | 89 | 100 | 100 | % Ctrl (MARK3): 98 % Ctrl; % Ctrl (MKNK1): 94 % Ctrl; % Ctrl (MLCK): 96 % Ctrl; % Ctrl (MST2): 100 % Ctrl; % Ctrl (MST4): 95 % Ctrl; % Ctrl (NDR1): 100 % Ctrl; % Ctrl (PIK3CA(I800L)): 97 % Ctrl; % Ctrl (PRKCH): 80 % Ctrl; % Ctrl (RET(V804M)): 100 % Ctrl; % Ctrl (ROCK2): 100 % Ctrl; % Ctrl [2]: 90 % Ctrl; % Ctrl (SNARK): 100 % Ctrl; % Ctrl (TAOK1): 100 % Ctrl; % Ctrl (ULK3): 96 % Ctrl; % Ctrl (VPS34): 85 % Ctrl; % Ctrl (WEE2): 97 % Ctrl
2 | [2H]C([2H])([2H])N(C(=O)c1ccc(N2CCCN(c3ccnc4sc(C(N)=O)c(N)c34)CC2)cc1)C([2H])([2H])[2H] [15u_D6, 3-amino-4-(4-(4-(bis(methyl-d3)carbamoyl)phenyl)-1,4-diazepan-1-yl)thieno[2,3-b]pyridine-2-carboxamide] | 99 | 100 | 77 | 100 | 92 | 92 | 80 | 100 | 87 | 94 | 100 | 98 | 77 | 71 | 89 | 66 | 100 | 97 | 98 | 91 | % Ctrl (MARK3): 100 % Ctrl; % Ctrl (MKNK1): 79 % Ctrl; % Ctrl (MLCK): 100 % Ctrl; % Ctrl (MST2): 84 % Ctrl; % Ctrl (MST4): 89 % Ctrl; % Ctrl (NDR1): 80 % Ctrl; % Ctrl (PIK3CA(I800L)): 74 % Ctrl; % Ctrl (PRKCH): 96 % Ctrl; % Ctrl (RET(V804M)): 100 % Ctrl; % Ctrl (ROCK2): 80 % Ctrl; % Ctrl [2]: 64 % Ctrl; % Ctrl (SNARK): 78 % Ctrl; % Ctrl (TAOK1): 73 % Ctrl; % Ctrl (ULK3): 79 % Ctrl; % Ctrl (VPS34): 65 % Ctrl; % Ctrl (WEE2): 88 % Ctrl
